Drawing on ChEMBL document CHEMBL4251597, “Discovery and evolution of aloperine derivatives as a new family of HCV inhibitors with novel mechanism” (Eur J Med Chem, 2018), this text covers inhibition for two molecules.

The source made the active and inactive calls. No cut-off for these calls is given here.

Holding throughout (assay type): functional, organism-based
Conditions in all cases: Hepacivirus hominis

Assay [1] concerns Hepatitis C virus. Briefly: Antiviral activity against HCV infected in human GS4.3 cells assessed as inhibition of viral core protein levels at 0.15 uM treated with fresh media containing compound every 2 days measured after 6 days by Western blot method.
Assay [2] has as its system Hepatitis C virus. Briefly: Antiviral activity against HCV infected in human GS4.3 cells assessed as inhibition of NS3/4A levels at 0.15 uM treated with fresh media containing compound every 2 days measured after 6 days by Western blot method. In general terms: Immunoblotting shows a protein as a band on a membrane.
Assay [3] relates to Hepatitis C virus. The experiment in a line: Antiviral activity against HCV J6/JFH/JC-1 infected in human Huh7.5 cells harboring […] S282T mutant assessed as inhibition of viral core protein levels at 0.01 to 1 uM treated with fresh media containing compound every 2 days by Western blot method.
Assay [4] has as its system Hepatitis C virus. Briefly: Antiviral activity against HCV infected in human GS4.3 cells assessed as inhibition of viral core protein levels at 0.8 uM treated with fresh media containing compound every 2 days measured after 6 days by Western blot method.
Assay [5] concerns Hepatitis C virus. Briefly: Antiviral activity against HCV J6/JFH/JC-1 infected in human Huh7.5 cells assessed as inhibition of NS3/4A S282T mutant levels at 0.01 to 1 uM treated with fresh media containing compound every 2 days by Western blot method.
The test system of assay [6] is Hepatitis C virus. The experiment in a line: Antiviral activity against 22.5 to 90 IU/cell of HCV J6/JFH/JC-1 infected in human Huh7.5 cells assessed as inhibition of NS3/4A levels at 0.05 uM treated with fresh media containing compound every 2 days by Western blot method.
For assay [7], the system named is Hepatitis C virus. The experiment in a line: Antiviral activity against 22.5 to 90 IU/cell of HCV J6/JFH/JC-1 infected in human Huh7.5 cells assessed as inhibition of viral core protein levels at 0.05 uM treated with fresh media containing compound every 2 days by Western blot method.
The subject of assay [8] is Hepatitis C virus. The experiment in a line: Antiviral activity against HCV infected in human GS4.3 cells assessed as inhibition of NS3/4A levels at 0.8 uM treated with fresh media containing compound every 2 days measured after 6 days by Western blot method.

As for `COC(=O)N[C@H](C(=O)N1CCC[C@H]1c1ncc(-c2ccc(-c3ccc(-c4cnc([C@@H]5CCCN5C(=O)[C@@H](NC(=O)OC)C(C)C)[nH]4)cc3)cc2)[nH]1)C(C)C`, the inhibition result in the assay on Hepatitis C virus [1] and in the assay with Hepatitis C virus [2] was “Active” each time.

`CC(C)OC(=O)[C@H](C)NP(=O)(OC[C@H]1O[C@@H](n2ccc(=O)[nH]c2=O)[C@](C)(F)[C@@H]1O)Oc1ccccc1` (stereo partly drawn): the inhibition result with Hepatitis C virus [3], in the assay on Hepatitis C virus [5], in the assay with Hepatitis C virus [6] and in the assay with Hepatitis C virus [7] was “inactive” in each case. Further, the inhibition entry with Hepatitis C virus [4] and with Hepatitis C virus [8] was “Active” throughout.
